This is an account of results in EPA's ToxValDB 9.5 (doi:10.2903/j.efsa.2009.191r).

For one data set, the system named is Rattus norvegicus. Particulars: acute; oral; mortality.
Another data set concerns Canidae. Particulars: chronic; duration: 1 years; oral; Dog Other; clinical signs.
The subject of another data set is Apis mellifera. To be noted: acute, mortality.
For the next data set, the system named is Colinus virginianus. To be noted: acute, oral, mortality; for LC50: diet.
The next data set deals with Anas platyrhynchos. To be noted: short-term; oral; feed; mortality.
The next data set has as its system Oncorhynchus mykiss. Particulars: acute; duration: 96 hours; mortality.
The subject of another data set is Daphnia magna. To be noted: acute; duration: 48 hours; mortality.

Usually NOAEL stands for the highest tested level that showed no adverse finding.

Regarding `COc1ccc([N+](=O)[O-])cc1[O-].[Na+]` [Sodium 2-methoxy-5-nitrophenolate], the LD50 is 716 mg/kg-day in the data set on Rattus norvegicus; above 100 µg/piece in the data set with Apis mellifera (dermal); 132 µg/piece with Apis mellifera (oral, unspecified); 2070 mg/kg-day in the data set with Colinus virginianus. This compound also had a no observed adverse effect level (NOAEL) in the data set on Canidae of 0.3 mg/kg-day. The LC50 with Colinus virginianus worked out at 1830 mg/kg-day.
Consider `O=[N+]([O-])c1ccccc1[O-].[Na+]` [Sodium 2-nitrophenolate], for which the results for the LC50 in the data set on Anas platyrhynchos and in the data set with Colinus virginianus were above 2540 mg/kg-day and above 2700 mg/kg-day, respectively. Also, the LD50 in the data set with Rattus norvegicus is 960 mg/kg-day; with Apis mellifera (dermal) it was above 100 µg/piece; with Apis mellifera (oral, unspecified), 124 µg/piece; in the data set with Colinus virginianus it was 1050 mg/kg-day.
Regarding `O=[N+]([O-])c1ccc([O-])cc1.[Na+]` [Sodium 4-nitrophenolate], the LD50 with Rattus norvegicus was 346 mg/kg-day; in the data set with Apis mellifera (dermal), 111 µg/piece; with Apis mellifera (oral, unspecified), above 61.2 µg/piece; with Colinus virginianus it was above 1670 mg/kg-day. In the data set on Canidae, this compound registered a no-observed-adverse-effect level (NOAEL) of 0.3 mg/kg-day. In addition, the LC50 with Oncorhynchus mykiss is 25 µg/mL; with Daphnia magna, 27.7 µg/mL; with Colinus virginianus, above 1410 mg/kg-day.
